Several values for one entry are separate records, joined by “and”; a condition that tells them apart may be missing. Equal entries are not always repeated. Toxic doses and inconclusive results are not listed. How the source made its calls: active means survival T/C of 150% or more; inactive means T/C below 125% in these data.
Test system: BDF1 mice, P388 leukemia ip, median survival T/C
Test: NCI In Vivo Anticancer Drug Screen. Data for tumor model P388 Leukemia (intraperitoneal) in B6D2F1 (BDF1) mice
Conditions: endpoint: median survival time, higher = longer survival
Procedure, shortened: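 Read-out is survival of treated animals expressed relative to the vehicle group, as a T/C ratio.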

[1] = dose: 50.0 mg/kg/injection, schedule: Q01DX009 (ip), vehicle: saline with Tween-80
[2] = dose: 50.0 mg/kg/injection, schedule: Q04DX003 (ip), vehicle: saline with Tween-80
[3] = dose: 100.0 mg/kg/injection, schedule: Q01DX009 (ip), vehicle: saline with Tween-80
[4] = dose: 100.0 mg/kg/injection, schedule: Q04DX003 (ip), vehicle: saline with Tween-80
[5] = dose: 200.0 mg/kg/injection, schedule: Q01DX009 (ip), vehicle: saline with Tween-80
[6] = dose: 200.0 mg/kg/injection, schedule: Q04DX003 (ip), vehicle: saline with Tween-80
[7] = dose: 100.0 mg/kg/injection, schedule: Q04DX003 (ip), vehicle: saline
[8] = dose: 200.0 mg/kg/injection, schedule: Q04DX003 (ip), vehicle: saline
[9] = dose: 100.0 mg/kg/injection, schedule: Q01DX009 (ip), vehicle: Klucel (hydroxypropylcellulose) (HPC)
[10] = dose: 200.0 mg/kg/injection, schedule: Q01DX009 (ip), vehicle: Klucel (hydroxypropylcellulose) (HPC)
[11] = dose: 400.0 mg/kg/injection, schedule: Q01DX009 (ip), vehicle: Klucel (hydroxypropylcellulose) (HPC)
[12] = dose: 50.0 mg/kg/injection, schedule: Q04DX003 (ip), vehicle: Klucel (hydroxypropylcellulose) (HPC)
[13] = dose: 100.0 mg/kg/injection, schedule: Q01DX001 (ip), vehicle: Klucel (hydroxypropylcellulose) (HPC)

Measured: T/C

C=C(C)C12CC(C)C34OC5(CCCCCCCC(C)C6C(C)C(OC(=O)c7ccccc7)C(O)(C(O)C7(COC(=O)CCCCCCCCCCCCCCC)OC7C3C1O5)C64)O2 (stereo not given)
inactive: dose: 0.6 micrograms/kg/injection, schedule: Q01DX009 (ip), vehicle: saline + alcohol 104 % of control | dose: 1.3 micrograms/kg/injection, schedule: Q01DX009 (ip), vehicle: saline + alcohol 112 % of control | dose: 1.5 micrograms/kg/injection, schedule: Q01DX009 (ip), vehicle: saline + alcohol 103 % of control | dose: 2.5 micrograms/kg/injection, schedule: Q01DX009 (ip), vehicle: saline + alcohol 109 % of control | dose: 3.1 micrograms/kg/injection, schedule: Q01DX009 (ip), vehicle: saline + alcohol 106 % of control | dose: 5.0 micrograms/kg/injection, schedule: Q01DX009 (ip), vehicle: saline + alcohol 112 % of control | dose: 10.0 micrograms/kg/injection, schedule: Q01DX009 (ip), vehicle: saline + alcohol 96 % of control | dose: 20.0 micrograms/kg/injection, schedule: Q01DX009 (ip), vehicle: saline + alcohol 116 % of control | dose: 80.0 micrograms/kg/injection, schedule: Q01DX009 (ip), vehicle: saline + alcohol 116 % of control
active: dose: 12.5 micrograms/kg/injection, schedule: Q01DX009 (ip), vehicle: saline + alcohol 154 % of control | dose: 25.0 micrograms/kg/injection, schedule: Q01DX009 (ip), vehicle: saline + alcohol 168 % of control | dose: 50.0 micrograms/kg/injection, schedule: Q01DX009 (ip), vehicle: saline + alcohol 183 % of control

COc1cc(/C=N\NC(=O)CC#N)cc(OC)c1OC
inactive: [1] 90 % of control | [2] 95 % of control | [3] 104 % of control | [4] 95 % of control | [5] 100 % of control | [6] 95 % of control

Cc1ccc(-n2nnc3ccccc3c2=O)cc1C
inactive: dose: 100.0 mg/kg/injection, schedule: Q01DX009 (ip), vehicle: saline 109 % of control | [7] 100 % of control | dose: 200.0 mg/kg/injection, schedule: Q01DX009 (ip), vehicle: saline 90 % of control | [8] 104 % of control | dose: 400.0 mg/kg/injection, schedule: Q01DX009 (ip), vehicle: saline 113 % of control | dose: 400.0 mg/kg/injection, schedule: Q04DX003 (ip), vehicle: saline 100 % of control

CN(C)P(=S)(N(C)C)N1CCC1
inactive: [1] 96 % of control | [3] 90 % of control | [5] 109 % of control

COc1ccc(C2CCc3cc(OC)c(OC)cc3C2=O)cc1OC (stereo not given)
inactive: dose: 20.0 mg/kg/injection, schedule: Q01DX009 (ip), vehicle: saline with Tween-80 87 % of control | dose: 80.0 mg/kg/injection, schedule: Q01DX009 (ip), vehicle: saline with Tween-80 91 % of control | dose: 120.0 mg/kg/injection, schedule: Q01DX009 (ip), vehicle: saline with Tween-80 87 % of control

O=C(OCC1OC(n2cnc3c(=S)nc[nH]c32)C(OC(=O)c2ccc([N+](=O)[O-])cc2)C1OC(=O)c1ccc([N+](=O)[O-])cc1)c1ccc([N+](=O)[O-])cc1 (stereo not given)
inactive: dose: 50.0 mg/kg/injection, schedule: Q01DX009 (ip), vehicle: Klucel (hydroxypropylcellulose) (HPC) 100 % of control | [9] 109 % of control | [10] 109 % of control | [11] 118 % of control

CC(C)Cc1c(N)nc(=S)[nH]c1C(=O)O
inactive: [12] 89 % of control | dose: 100.0 mg/kg/injection, schedule: Q04DX003 (ip), vehicle: Klucel (hydroxypropylcellulose) (HPC) 107 % of control | dose: 200.0 mg/kg/injection, schedule: Q04DX003 (ip), vehicle: Klucel (hydroxypropylcellulose) (HPC) 96 % of control

O=[N+]([O-])c1ccc(N=Nc2c(O)ccc3ccccc23)cc1
inactive: dose: 25.0 mg/kg/injection, schedule: Q01DX009 (ip), vehicle: saline with Tween-80 109 % of control | [1] 100 % of control | [2] 111 % of control | [3] 96 % of control | [4] 120 % of control | [5] 105 % of control | [6] 110 % of control | dose: 400.0 mg/kg/injection, schedule: Q01DX009 (ip), vehicle: saline with Tween-80 106 % of control | dose: 400.0 mg/kg/injection, schedule: Q04DX003 (ip), vehicle: saline with Tween-80 105 % of control

NS(=O)(=O)c1ccc(NC(=O)c2ccccc2C(=O)O)cc1
inactive: [9] 95 % of control | [10] 100 % of control | [11] 105 % of control

NC(=S)N/N=C\c1ncnc2ccccc12
active: dose: 8.0 mg/kg/injection, schedule: Q01DX009 (ip), vehicle: saline with Tween-80 150 % of control | dose: 12.0 mg/kg/injection, schedule: Q01DX009 (ip), vehicle: saline with Tween-80 150 % of control | dose: 18.0 mg/kg/injection, schedule: Q01DX009 (ip), vehicle: saline with Tween-80 150 % of control

OCCSc1ncc2cnccn12
inactive: dose: 100.0 mg/kg/injection, schedule: Q04DX003 (ip), vehicle: water 109 % of control | dose: 200.0 mg/kg/injection, schedule: Q04DX003 (ip), vehicle: water 109 % of control | dose: 400.0 mg/kg/injection, schedule: Q04DX003 (ip), vehicle: water 109 % of control

O=C(/C=C/c1ccc2c(c1)OCO2)c1ccc([N+](=O)[O-])cc1
inactive: dose: 6.25 mg/kg/injection, schedule: Q04DX003 (ip), vehicle: Klucel (hydroxypropylcellulose) (HPC) 100 % of control | dose: 12.5 mg/kg/injection, schedule: Q04DX003 (ip), vehicle: Klucel (hydroxypropylcellulose) (HPC) 100 % of control | dose: 25.0 mg/kg/injection, schedule: Q04DX003 (ip), vehicle: Klucel (hydroxypropylcellulose) (HPC) 100 % of control | [12] 86 % of control | [13] 105 % of control | dose: 200.0 mg/kg/injection, schedule: Q01DX001 (ip), vehicle: Klucel (hydroxypropylcellulose) (HPC) 90 % of control | dose: 400.0 mg/kg/injection, schedule: Q01DX001 (ip), vehicle: Klucel (hydroxypropylcellulose) (HPC) 92 % of control

CC(CN(C)C)C(=O)/C=C/c1ccccc1 (stereo not given)
inactive: dose: 18.75 mg/kg/injection, schedule: Q01DX009 (ip), vehicle: saline 100 % of control | dose: 37.5 mg/kg/injection, schedule: Q01DX009 (ip), vehicle: saline 109 % of control | dose: 75.0 mg/kg/injection, schedule: Q01DX009 (ip), vehicle: saline 109 % of control

O=Nc1ccc2ccccc2c1O
inactive: dose: 50.0 mg/kg/injection, schedule: Q01DX001 (ip), vehicle: Klucel (hydroxypropylcellulose) (HPC) 107 % of control | [13] 104 % of control

[NH-]CC([NH-])=O.[NH-]CC([NH-])=O.[Ni]
inactive: dose: 5.0 mg/kg/injection, schedule: Q01DX009 (ip), vehicle: water 105 % of control | dose: 10.0 mg/kg/injection, schedule: Q01DX009 (ip), vehicle: water 105 % of control | dose: 12.5 mg/kg/injection, schedule: Q04DX003 (ip), vehicle: water 95 % of control | dose: 25.0 mg/kg/injection, schedule: Q04DX003 (ip), vehicle: water 109 % of control

Cc1c(-c2ccccc2)cc(O)cc1-c1ccccc1
inactive: dose: 12.5 mg/kg/injection, schedule: Q04DX003 (ip), vehicle: saline 101 % of control | dose: 25.0 mg/kg/injection, schedule: Q04DX003 (ip), vehicle: saline 97 % of control and 114 % of control | dose: 50.0 mg/kg/injection, schedule: Q04DX003 (ip), vehicle: saline 102 % of control (2×) and 112 % of control | [7] 88 % of control and 109 % of control | dose: 150.0 mg/kg/injection, schedule: Q04DX003 (ip), vehicle: saline 93 % of control | [8] 93 % of control and 101 % of control and 102 % of control

COC12CC3(C)C(C4=CC(=O)OC4)CCC3(O)C3CCC4=CC(=O)CCC4(CO1)C32 (stereo not given)
inactive: dose: 56.0 mg/kg/injection, schedule: Q01DX010 (ip), vehicle: carboxymethylcellulose (CMC) 95 % of control | dose: 112.5 mg/kg/injection, schedule: Q01DX010 (ip), vehicle: carboxymethylcellulose (CMC) 100 % of control | dose: 225.0 mg/kg/injection, schedule: Q01DX010 (ip), vehicle: carboxymethylcellulose (CMC) 90 % of control

— PubChem BioAssay AID328 (DTP/NCI, 2004)
